Results on twelve compounds are retold here after US5008386A, “Methylated cyclodextrin type compounds and process for preparing same” (Chinoin Gyogyszer es Vegyeszeti Termekek Gyara R.T., priority 1987, dated 1991).

In brackets after ≈: the same amount, converted by molar mass. Several values for one entry are separate records, joined by “and”; a condition that tells them apart may be missing. Identical values can stand only once. Like-named read-outs stand apart in the source and are kept apart here. Where only a bound is given, the exact number is not on record here.

Data set [1] is described as follows: Solubility-increasing effect (UV spectrophotometry, 22 °C, 18 hours stirring). Here is the method:
Therefore comparative examinations concerning the solubility-increasing effect were performed with model guest-molecules containing a basic group. (The measurements were carried out by UV spectrophotometry at 22° C. after stirring for 18 hours).

Another data set is described as follows: in vitro. It counts as cell-based, human. Particulars: human, erythrocytes, pH 7.4. The method, then:
(§1) Solutions containing the test substances in 10 mM concentration were prepared in a 10 mM phosphate buffer at pH 7.4. The commercially available α-, β- and γ-CD products manufactured by Chinoin Chemical and Pharmaceutical Works Ltd. (Budapest, Hungary) were used.
(§2) DIMEB and TRIMEB, i.e. heptakis(2,6-di-O-methyl)-β-CD and heptakis(2,3,6-tri-O-methyl)-β-CD, respectively were prepared by the partial or total methylation of β-CD as described previously.
(§3) Fresh human blood (taken from healthy donors being under no medicinal treatment) treated by citrate as anticoagulant was centrifuged at 2000-3000× g for 10 minutes, then the supernatant was decanted, the eryhtrocytes were suspended in 5 ml of 10 mM isotonic phosphate buffer each and again centrifuged at 2000-3000× g for 10 minutes. After repeating twice this operation, the resulting erythrocytes were suspended in isotonic phosphate buffer to obtain a haematocrite volume of about 10%. This suspension (which could be stored in a refrigerator at about 4° C. for at most 48 hours) was used in further experiments.
(§4) 0.4 ml of erythrocyte suspension was added to a test solution of 4 ml total volume containing the tested CD-s and derivatives in various concentrations, then the mixture was incubated at 37° C. for 30 minutes. The mixture of 4 ml isotonic phosphate buffer and 0.4 ml erythrocyte suspension was used as blank trial (which was treated similarly to the samples).
(§5) After 30 minutes, the suspensions being present in the centrifuge tubes were centrifuged at 250-500× g for 10 minutes. (It was observed that no transparent supernatant, useful for spectrophotometric determination was obtained when the centrifuging was carried out for a shorter time.) After 10 minutes, the supernatants were drained off and their extinction was photometrically determined at 543 nm against a blank solution. In order to give the percentage of haemolysis, the extinction measured after a complete haemolysis had to be determined. This value was obtained in such a way that 0.4 ml of erythrocyte suspension was added to 4 ml of distilled water, then incubation and centrifuging were carried out in the same manner as described for the samples. The extinction of the solution thus obtained gave the 100% value of the haemolysis; when relating the measured extinctions of the samples to the 100% value, the extent of the haemolysis was obtained as a relative percentage.

In data set [2] the test system is human erythrocytes. As to the kind of experiment: in vitro. Format: cell-based. The method, then:
as §1, §2, §3, §4, §5

The subject of data set [3] is human erythrocytes. The following applies: cited from earlier work.
Where [4] appears, read: 2.5% SUMEB vs 2.5% DIMEB solution, * UV maximum shifted (Sensit base).
[5] abbreviates: human, erythrocytes, 0.5 h, pH 7.4.
[6] abbreviates: 37° C., pH 7,4, 10 mmoles isotonic phosphate buffer.

Broadly, the solubility is the dissolved amount per volume that the medium holds. `CC(Cc1ccccc1)NCCC(c1ccccc1)c1ccccc1` (racemic) [± Prenylamine base, Prenylamine]: in data set [1] (setting [4]), the “SUMEB / DIMEB (ratio of solubilities)” value is given as 3.75. Besides, the solubility at 18 h turned out to be 2000 µg/mL (≈ 6.07 mM) in data set [1] (2.5% dimeb solution), 7500 µg/mL (≈ 22.8 mM) in data set [1] (2.5% sumeb solution) and 310 µg/mL (≈ 0.941 mM) in data set [1] (water).
Take `CC(NCCC(c1ccccc1)c1ccccc1)c1ccccc1` (racemic) [± Sensit base]: in data set [1], the “SUMEB / DIMEB (ratio of solubilities)” value is listed as 1.53. Besides, the solubility at 18 h is 5500 µg/mL (≈ 17.4 mM) in data set [1] (2.5% dimeb solution), 8500 µg/mL (≈ 26.9 mM) in data set [1] (2.5% sumeb solution) and 2100 µg/mL (≈ 6.66 mM) in data set [1] (water).
In the case of `C[C@@H]([C@H](O)c1ccccc1)N(C)C` [- N-Methylephedrine base, N-Methylephedrine], the “SUMEB / DIMEB (ratio of solubilities)” value in data set [1] (setting [4]) came out at 1.2. For the same compound, the solubility at 18 h in data set [1] (2.5% dimeb solution) is 18500 µg/mL (≈ 103 mM); in data set [1] (2.5% sumeb solution) it was 22000 µg/mL (≈ 123 mM).
For `CC(C)CCC[C@@H](C)[C@H]1CC[C@H]2[C@@H]3CC=C4C[C@@H](O)CC[C@]4(C)[C@H]3CC[C@]12C` [Cholesterol], the “SUMEB / DIMEB (ratio of solubilities)” value in data set [1] (setting [4]) came to 0.37. Also, the solubility at 18 h in data set [1] (2.5% dimeb solution) was found to be 1710 µg/mL (≈ 4.42 mM); in data set [1] (2.5% sumeb solution), 640 µg/mL (≈ 1.66 mM); in data set [1] (water) it was 100 µg/mL (≈ 0.259 mM).
One may read the HC50 as the concentration giving 50% haemolysis. Read a high HC50 as less damage to red cells. Take `COC[C@H]1O[C@@H]2O[C@H]3[C@H](O)[C@@H](OC)[C@@H](O[C@H]4[C@H](O)[C@@H](OC)[C@@H](O[C@H]5[C@H](O)[C@@H](OC)[C@@H](O[C@H]6[C@H](O)[C@@H](OC)[C@@H](O[C@H]7[C@H](O)[C@@H](OC)[C@@H](O[C@H]8[C@H](O)[C@@H](OC)[C@@H](O[C@H]1[C@H](O)[C@H]2OC)O[C@@H]8COC)O[C@@H]7COC)O[C@@H]6COC)O[C@@H]5COC)O[C@@H]4COC)O[C@@H]3COC` [DIMEB, heptakis(2,6-di-O-methyl)-β-CD]: in “in vitro”, the HC50 at 0.5 h was 1 mM and 1440 µg/mL; the MNTC at 0.5 h was 220 µM and 300 µg/mL. In the data set on human erythrocytes [2], the “concentration giving the same percentage of haemolysis, relative to β-CD” value is listed as “one sixth”.
With `c1ccc(Nc2ccccc2)cc1` [Diphenylamine], the “SUMEB / DIMEB (ratio of solubilities)” value in data set [1] (setting [4]) worked out at 0.72. Moreover, the solubility at 18 h in data set [1] (2.5% dimeb solution) is 520 µg/mL (≈ 3.07 mM); in data set [1] (2.5% sumeb solution), 410 µg/mL (≈ 2.42 mM).
As to `COC[C@H]1O[C@@H]2O[C@H]3[C@H](OC)[C@@H](OC)[C@@H](O[C@H]4[C@H](OC)[C@@H](OC)[C@@H](O[C@H]5[C@H](OC)[C@@H](OC)[C@@H](O[C@H]6[C@H](OC)[C@@H](OC)[C@@H](O[C@H]7[C@H](OC)[C@@H](OC)[C@@H](O[C@H]8[C@H](OC)[C@@H](OC)[C@@H](O[C@H]1[C@H](OC)[C@H]2OC)O[C@@H]8COC)O[C@@H]7COC)O[C@@H]6COC)O[C@@H]5COC)O[C@@H]4COC)O[C@@H]3COC` [TRIMEB, heptakis(2,3,6-tri-O-methyl)-β-CD], in the data set “in vitro”, the HC50 at 0.5 h is 4 mM and 5700 µg/mL; the MNTC at 0.5 h was 1.4 mM and 2000 µg/mL. Besides, the “haemolytic effect, in words” value with human erythrocytes [2] is “also higher than that of the mother compound”.
For the compound `OC[C@H]1O[C@@H]2O[C@H]3[C@H](O)[C@@H](O)[C@@H](O[C@H]4[C@H](O)[C@@H](O)[C@@H](O[C@H]5[C@H](O)[C@@H](O)[C@@H](O[C@H]6[C@H](O)[C@@H](O)[C@@H](O[C@H]7[C@H](O)[C@@H](O)[C@@H](O[C@H]1[C@H](O)[C@H]2O)O[C@@H]7CO)O[C@@H]6CO)O[C@@H]5CO)O[C@@H]4CO)O[C@@H]3CO` [α-CD], in “in vitro”, the HC50 at 0.5 h was 12 mM and 11700 µg/mL; the MNTC at 0.5 h was 6 mM and 5800 µg/mL. Moreover, the “Haemolysis values, measured” value in the data set on human erythrocytes [2] (setting [5]) stood at 4.97%. Besides, in the data set with human erythrocytes [3], the “low concentration protecting human erythrocytes against heat-induced or osmotic haemolysis” value is 5 mmol. Also, the “concentration at (and above) which haemolysis is induced” value in the data set with human erythrocytes [3] (pH 7) is 6 mmol.
As for `OC[C@H]1O[C@@H]2O[C@H]3[C@H](O)[C@@H](O)[C@@H](O[C@H]4[C@H](O)[C@@H](O)[C@@H](O[C@H]5[C@H](O)[C@@H](O)[C@@H](O[C@H]6[C@H](O)[C@@H](O)[C@@H](O[C@H]7[C@H](O)[C@@H](O)[C@@H](O[C@H]8[C@H](O)[C@@H](O)[C@@H](O[C@H]1[C@H](O)[C@H]2O)O[C@@H]8CO)O[C@@H]7CO)O[C@@H]6CO)O[C@@H]5CO)O[C@@H]4CO)O[C@@H]3CO` [β-CD, β-cyclodextrin], in the data set “in vitro”, the HC50 at 0.5 h is 6 mM and 6800 µg/mL; the MNTC at 0.5 h was 1.6 mM and 1800 µg/mL. Besides, the “concentration at (and above) which haemolysis is induced” value with human erythrocytes [3] (setting [6]) is listed as 3 mmol.
As to `OC[C@H]1O[C@@H]2O[C@H]3[C@H](O)[C@@H](O)[C@@H](O[C@H]4[C@H](O)[C@@H](O)[C@@H](O[C@H]5[C@H](O)[C@@H](O)[C@@H](O[C@H]6[C@H](O)[C@@H](O)[C@@H](O[C@H]7[C@H](O)[C@@H](O)[C@@H](O[C@H]8[C@H](O)[C@@H](O)[C@@H](O[C@H]9[C@H](O)[C@@H](O)[C@@H](O[C@H]1[C@H](O)[C@H]2O)O[C@@H]9CO)O[C@@H]8CO)O[C@@H]7CO)O[C@@H]6CO)O[C@@H]5CO)O[C@@H]4CO)O[C@@H]3CO` [γ-CD], in “in vitro”, the concentration for 50% haemolysis (HC50) at 0.5 h is 24 mM and 32000 µg/mL; the MNTC at 0.5 h is ≤ 9 mM and ≤ 11000 µg/mL. Further, the “concentration at (and above) which haemolysis is induced” value with human erythrocytes [3] (setting [6]) is on record as 16 mmol. Further, in the data set on human erythrocytes [3], the “low concentration protecting human erythrocytes against heat-induced or osmotic haemolysis” value is 10 mmol.
Regarding “trideca-O-methyl-monosuccinyl-β-cyclodextrin [SUMEB]”, the “haemolytic effect, in words” value with human erythrocytes [2] is “significantly lower in comparison to the haemolytic effect of the mother compound”. Besides, in the data set on human erythrocytes [2] (setting [5]), the “concentration at which no haemolytic effect was observed” value was 0.3 mg/mL and the “concentration with a haemolysis value of 50%” value was 6.5 mg/mL.
Take “trideca-O-methyl-monosuccinyl-β-cyclodextrin methyl ester [Succinyl-DIMEB methyl ester]”: the “haemolytic effect, in words” value in the data set with human erythrocytes [2] is on record as “not significantly different from the haemolytic effect of the trideca-O-methyl-monosuccinyl-β-CD”.
